The values below come from patent publication US9138439B2, “Methods and compositions for modulating P300/CBP activity” (The Wistar Institute, priority 2007, dated 2015).

One data set deals with T1, wild-type p300 HAT (Homo sapiens, UniProt Q09472, DEL1523-1554/M1652G).
T1 construct: linking the natural N- and C-termini (residues 1287 and 1666) of the HAT domain; made in house
T1 sequence (Q09472 with tags, fused parts or gaps DEL1523-1554/M1652G): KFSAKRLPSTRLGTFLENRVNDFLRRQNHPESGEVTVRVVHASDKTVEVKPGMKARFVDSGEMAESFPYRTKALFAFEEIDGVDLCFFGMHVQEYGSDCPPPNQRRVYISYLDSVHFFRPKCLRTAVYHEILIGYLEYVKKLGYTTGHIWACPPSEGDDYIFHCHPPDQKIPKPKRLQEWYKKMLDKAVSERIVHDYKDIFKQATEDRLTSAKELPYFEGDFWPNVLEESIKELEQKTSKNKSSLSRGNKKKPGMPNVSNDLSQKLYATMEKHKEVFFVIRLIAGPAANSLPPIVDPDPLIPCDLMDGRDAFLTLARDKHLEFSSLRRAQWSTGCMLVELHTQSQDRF
Description: HAT assay, steady state kinetic parameters of H4 tail peptide analog substrates, wild-type p300 HAT. Format: biochemical. To be noted: peptide as substrate of wild-type p300 HAT. The protocol: (§1) HAT Assays. HAT activity was determined by either a rapid and nonradioactive HAT assay that measures the production of CoASH by its facile reaction with DTNB, or by a radioactive assay (Lau, et al. (2000) supra; Thompson, et al. (2000) supra). […] For the radioactive assay, the concentration of [^14C]acetyl-CoA was fixed at 20 μM when measuring the steady-state kinetic parameters for peptide substrates.
(§2) To test the influence of electrostatic interactions on substrate sequence selection, the steady state kinetic parameters for several synthetic H4 tail peptide analogs was determined (listed in Table 5). In H4-15, there are two other basic residues (Lys5 and Lys12) near the target Lys8. It has previously been shown that either one of the nearby Lys (or Arg replacements) is sufficient to permit efficient acetylation by full-length p300 (Thompson, et al. (2001) supra). Here, the effects of replacing Lys5 and Lys12 with Ala, the neutral residue hydrogen bonding citrulline, or Asp were compared for wild-type and mutant p300 HAT as indicated in Table 5. Analysis of the single lysine substrate, analogous to the Lys-CoA component, which contains both amino and carboxyl groups derivatized as amides (Table 5), was also conducted. Km of these substrates were generally too high to be measured (>1000 μM) under the experimental conditions, highlighting the important role of the nearby positively charged residues for substrate interaction. As shown Table 5, the 22-fold V/K difference between wild-type p300 HAT protein and the D1625R/D1628R mutant for H4-15 substrate dropped to 6-fold when using Ac-Lys-NH2 as substrate. […] Consistent with this idea, H4-12^K5A/K12A or H4-12^K5Cit/K12A which lack proximal basic residues but contain neutral hydrogen bonding residues show kinetic behavior similar to that of Ac-Lys-NH2 (Table 5).

For the next data set, the target named is T2, D1625R/D1628R p300 HAT (Homo sapiens, UniProt Q09472, D1625R/D1628R/DEL1523-1554/M1652G).
T2 construct: linking the natural N- and C-termini (residues 1287 and 1666) of the HAT domain; made in house
T2 sequence (Q09472 with tags, fused parts or gaps DEL1523-1554/D1625R/D1628R/M1652G): T1 sequence (Q09472 with tags, fused parts or gaps DEL1523-1554/M1652G) with D307R, D310R
The experiment in a line: HAT assay, steady state kinetic parameters of H4 tail peptide analog substrates, D1625R/D1628R p300 HAT mutant. It is filed as biochemical. To be noted: for V/K(M^−1s^−1) for D1625R/D1628R: peptide as substrate of D1625R/D1628R p300 HAT mutant; for V/K difference between wild-type p300 HAT protein and the D1625R/D1628R mutant: ratio wild-type versus mutant for the given substrate. The protocol:
as §1, §2

The test system of data set [1] is p300/CBP HAT. Description: coupled spectrophotometric assay that measures CoASH production in real-time. It is filed as biochemical, human. Conditions: inhibitor concentration not given. From the text: (§3) In accordance with the methods of the present invention, compounds were screened to identify modulators of p300/CBP HAT activity.
Data set [2] has as its system p300/CBP HAT. Description: direct radioactive assay measuring 14C-incorporation from acetyl-CoA into H4 tail peptide. Format: biochemical, human. Conditions: inhibitor concentration not given. The protocol: as §3, §1
The test system of the next data set is AANAT. The experiment in a line: specificity test against other acetyltransferases: AANAT. It is filed as biochemical. From the text:
(§4) The three small molecule p300 HAT inhibitors (7, 17.2 and 17.3) identified using virtual library screening provided new leads for further development. […] From the docking model of 7 to p300 HAT (FIG. 11), important hydrogen bonding roles are indicated for the side-chains of Arg1410, Thr1411, Trp1466 (all interacting with the inhibitor carboxylate) as well as the side-chain of Tyr1467 (hydrogen bonding to the nitro group). While Arg1410 and Tyr1467 are critical for CoA binding and/or catalysis, mutation of Trp1466 is well-tolerated. To explore the specificity of the small molecule HAT inhibitors, these compounds are tested against other acetyltransferases (PCAF, AANAT, RTT109, EsaI), which assists in the prioritization of candidates for pharmacologic applications.

The target in the next data set is PCAF (Homo sapiens, UniProt Q92831). Description: specificity test against other acetyltransferases: PCAF. Format: biochemical.
From the text: as §4

The target of another data set is p300/CBP (Homo sapiens, UniProt Q09472). To be noted: Lau, et al. (2000); cited from earlier work.

Where a chain is given by its changes, count along the chain named. Non-standard residues stand in square brackets, D forms with d. No end group written: not given here. Cit = NC(=O)NCCC[C@H](N)C(=O)O A value given as a limit tells only on which side of the number the result lay.

PCAF, sequence (Q92831 whole entry, species assumed): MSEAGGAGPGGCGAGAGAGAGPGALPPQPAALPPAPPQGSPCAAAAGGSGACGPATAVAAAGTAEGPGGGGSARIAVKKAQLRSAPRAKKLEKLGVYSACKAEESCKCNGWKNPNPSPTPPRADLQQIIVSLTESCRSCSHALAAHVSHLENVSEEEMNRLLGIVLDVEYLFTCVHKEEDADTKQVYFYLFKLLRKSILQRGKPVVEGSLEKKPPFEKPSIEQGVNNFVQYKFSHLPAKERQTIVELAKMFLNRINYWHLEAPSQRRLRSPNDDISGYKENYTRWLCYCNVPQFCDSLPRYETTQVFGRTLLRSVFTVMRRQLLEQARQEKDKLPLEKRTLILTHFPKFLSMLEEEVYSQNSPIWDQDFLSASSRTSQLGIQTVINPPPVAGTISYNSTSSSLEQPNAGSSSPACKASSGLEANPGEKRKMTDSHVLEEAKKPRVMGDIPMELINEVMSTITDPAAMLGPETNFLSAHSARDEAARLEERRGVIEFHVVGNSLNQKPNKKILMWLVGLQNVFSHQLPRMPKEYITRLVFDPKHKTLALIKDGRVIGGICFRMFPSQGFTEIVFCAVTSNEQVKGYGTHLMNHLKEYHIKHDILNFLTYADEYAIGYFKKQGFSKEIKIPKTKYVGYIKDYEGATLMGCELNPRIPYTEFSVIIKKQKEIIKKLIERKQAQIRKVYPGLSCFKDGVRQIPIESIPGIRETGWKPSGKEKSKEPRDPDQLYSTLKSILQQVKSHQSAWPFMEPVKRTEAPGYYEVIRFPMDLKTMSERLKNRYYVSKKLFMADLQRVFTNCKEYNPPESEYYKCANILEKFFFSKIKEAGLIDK
p300/CBP, sequence (Q09472 whole entry): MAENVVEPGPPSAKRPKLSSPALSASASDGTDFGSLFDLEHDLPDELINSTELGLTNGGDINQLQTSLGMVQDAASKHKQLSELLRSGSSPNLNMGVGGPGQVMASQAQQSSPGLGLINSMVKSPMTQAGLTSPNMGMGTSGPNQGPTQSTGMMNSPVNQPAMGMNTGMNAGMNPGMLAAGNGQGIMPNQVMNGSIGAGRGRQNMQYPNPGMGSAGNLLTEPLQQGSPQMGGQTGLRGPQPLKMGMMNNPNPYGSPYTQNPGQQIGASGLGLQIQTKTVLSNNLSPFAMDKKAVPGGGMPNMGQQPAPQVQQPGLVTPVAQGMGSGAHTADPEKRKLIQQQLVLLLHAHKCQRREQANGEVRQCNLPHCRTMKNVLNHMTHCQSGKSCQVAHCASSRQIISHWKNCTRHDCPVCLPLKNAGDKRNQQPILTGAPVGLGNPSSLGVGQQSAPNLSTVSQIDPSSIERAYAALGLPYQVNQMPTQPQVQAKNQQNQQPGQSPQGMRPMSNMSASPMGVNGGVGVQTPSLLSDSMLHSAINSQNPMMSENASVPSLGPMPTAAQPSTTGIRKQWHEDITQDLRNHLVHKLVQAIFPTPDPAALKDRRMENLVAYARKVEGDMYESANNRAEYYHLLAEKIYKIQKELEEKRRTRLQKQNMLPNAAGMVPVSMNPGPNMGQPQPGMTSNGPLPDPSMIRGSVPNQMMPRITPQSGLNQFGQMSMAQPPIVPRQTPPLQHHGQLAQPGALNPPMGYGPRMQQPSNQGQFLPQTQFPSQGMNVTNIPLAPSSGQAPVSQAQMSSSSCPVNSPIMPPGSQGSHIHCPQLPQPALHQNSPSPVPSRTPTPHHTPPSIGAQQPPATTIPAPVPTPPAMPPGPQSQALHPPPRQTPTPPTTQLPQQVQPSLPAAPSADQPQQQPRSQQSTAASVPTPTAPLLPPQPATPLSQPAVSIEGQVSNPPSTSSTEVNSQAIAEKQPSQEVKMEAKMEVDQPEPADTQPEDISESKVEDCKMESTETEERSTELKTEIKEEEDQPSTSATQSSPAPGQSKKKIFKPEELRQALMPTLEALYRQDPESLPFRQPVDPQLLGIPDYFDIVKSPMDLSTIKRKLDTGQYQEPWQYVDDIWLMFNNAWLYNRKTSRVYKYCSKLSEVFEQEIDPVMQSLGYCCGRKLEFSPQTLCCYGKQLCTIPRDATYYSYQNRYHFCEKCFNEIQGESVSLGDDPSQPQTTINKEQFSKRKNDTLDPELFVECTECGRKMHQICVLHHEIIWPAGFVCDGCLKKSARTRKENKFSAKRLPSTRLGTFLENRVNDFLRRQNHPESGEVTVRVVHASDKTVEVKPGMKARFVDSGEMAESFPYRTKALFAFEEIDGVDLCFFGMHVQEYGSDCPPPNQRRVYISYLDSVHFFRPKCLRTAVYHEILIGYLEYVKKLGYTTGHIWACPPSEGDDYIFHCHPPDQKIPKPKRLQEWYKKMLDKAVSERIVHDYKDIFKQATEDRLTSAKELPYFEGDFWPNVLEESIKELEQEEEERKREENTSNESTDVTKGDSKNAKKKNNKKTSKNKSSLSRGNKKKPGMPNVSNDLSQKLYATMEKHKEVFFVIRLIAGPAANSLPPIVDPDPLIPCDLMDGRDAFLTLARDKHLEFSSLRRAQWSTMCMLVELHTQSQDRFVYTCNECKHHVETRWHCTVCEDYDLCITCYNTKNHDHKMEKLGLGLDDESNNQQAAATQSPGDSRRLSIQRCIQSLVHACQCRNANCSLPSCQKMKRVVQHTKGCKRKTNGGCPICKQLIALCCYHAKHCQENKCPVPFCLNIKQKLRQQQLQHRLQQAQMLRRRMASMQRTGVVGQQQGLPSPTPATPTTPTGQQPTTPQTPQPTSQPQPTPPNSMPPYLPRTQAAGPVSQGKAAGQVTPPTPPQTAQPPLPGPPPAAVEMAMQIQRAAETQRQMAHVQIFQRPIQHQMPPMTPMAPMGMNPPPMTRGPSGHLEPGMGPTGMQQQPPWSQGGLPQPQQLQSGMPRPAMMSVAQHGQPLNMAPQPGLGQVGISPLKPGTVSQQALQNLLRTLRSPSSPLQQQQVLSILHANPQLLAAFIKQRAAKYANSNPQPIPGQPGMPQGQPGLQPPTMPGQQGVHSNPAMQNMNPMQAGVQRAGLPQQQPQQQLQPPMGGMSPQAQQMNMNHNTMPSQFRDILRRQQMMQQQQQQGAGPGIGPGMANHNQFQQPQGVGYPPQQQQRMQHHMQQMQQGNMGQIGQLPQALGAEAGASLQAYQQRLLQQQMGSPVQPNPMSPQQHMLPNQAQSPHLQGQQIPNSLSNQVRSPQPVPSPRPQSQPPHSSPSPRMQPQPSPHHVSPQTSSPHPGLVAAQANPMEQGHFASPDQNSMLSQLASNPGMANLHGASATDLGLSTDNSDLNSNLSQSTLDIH

Take GRGDGGKGLGDGGAK [H4-15(K5D/K12D)]: the “V/K(M^−1s^−1) for W.T.” value with wild-type p300 HAT is 636 ± 0 M⁻¹ s⁻¹. Also, in the data set with D1625R/D1628R p300 HAT, the “V/K(M^−1s^−1) for D1625R/D1628R” value was found to be 422 ± 20 M⁻¹ s⁻¹; the “V/K difference between wild-type p300 HAT protein and the D1625R/D1628R mutant” value is listed as at most 2 fold.
As to `CC1=NN(c2ccc(C(=O)O)cc2)C(=O)C1` [CM-26], in the data set on p300/CBP HAT [1], the “% Inhibition Coupled” value is 16.3%.
Take `CC1=NN(c2ccc(C(=O)O)cc2)C(=O)/C1=C\c1ccc(-c2cc(C)ccc2[N+](=O)[O-])o1` [Compound 40174]: the “% Inhibition Direct” value with p300/CBP HAT [2] is listed as 79.5%.
As for `CC1=NN(c2ccc(S(=O)(=O)O)cc2)C(=O)/C1=C\c1ccc(-c2cc(C)c(C)cc2[N+](=O)[O-])o1` [Compound 6f], the melting point was in the range of 210 to 213 °C. Also, the “% Inhibition Coupled” value with p300/CBP HAT [1] turned out to be 57.4%. The “% Inhibition Direct” value in the data set with p300/CBP HAT [2] came to 97.2%.
Molecule `CCOC(=O)c1ccc(N2N=C(C)/C(=C/c3ccc(-c4cc(C)c(C)cc4[N+](=O)[O-])o3)C2=O)cc1` [Compound 6d] returned a melting point of 192 to 194 °C. In addition, the “% Inhibition Coupled” value in the data set with p300/CBP HAT [1] worked out at 0%.
“RGXGGKGLGAGA (RG[Cit]GGKGLGAGA) [H4-12(K5X/K12A)]”: the “V/K(M^−1s^−1) for W.T.” value with wild-type p300 HAT was 5247 ± 60 M⁻¹ s⁻¹. For the same molecule, in the data set with D1625R/D1628R p300 HAT, the “V/K(M^−1s^−1) for D1625R/D1628R” value worked out at 738 ± 20 M⁻¹ s⁻¹.
Take `CC1=NN(c2ccc(C(=O)O)cc2)C(=O)/C1=C\c1ccc(-c2ccc([N+](=O)[O-])cc2)o1` [Compound 6b]: the melting point lay in the range of 338 to 341 °C. The “% Inhibition Coupled” value in the data set with p300/CBP HAT [1] is given as 35.6%. Further, in the data set with p300/CBP HAT [2], the “% Inhibition Direct” value came out at 33.8%.
Take `CC1=NN(CCCCC(=O)O)C(=O)/C1=C\c1ccc(-c2cc(C)c(C)cc2[N+](=O)[O-])o1` [Compound 9]: in the data set on p300/CBP HAT [1], the “% Inhibition Coupled” value is reported as 92.6%. In addition, the “% Inhibition Direct” value in the data set with p300/CBP HAT [2] is 55.8%.
The like results for `CC1=NN(c2ccc(C(=O)O)cc2)C(=O)/C1=C\c1ccc(-c2ccccc2F)o1` [Compound 6328730] were, in that order, 90.5% and 67.9%.
Turning to `CC1=NN(c2ccc(Cl)cc2)C(=O)/C1=C\c1ccc(-c2cc(C)c(C)cc2[N+](=O)[O-])o1` [Compound 6i], the melting point lay within 220 to 223 °C. Moreover, the “% Inhibition Coupled” value with p300/CBP HAT [1] turned out to be 13.9%.
`CC1=NN(c2cccc(C(=O)O)c2)C(=O)/C1=C\c1ccc(-c2cc(C)c(C)cc2[N+](=O)[O-])o1` [Compound 6e] displayed a melting point of 260 to 262 °C. Besides, in the data set with p300/CBP HAT [1], the “% Inhibition Coupled” value is recorded as 63.4%. Also, in the data set with p300/CBP HAT [2], the “% Inhibition Direct” value is listed as 96.4%.
The like results for `CCOC(=O)c1ccccc1-c1ccc(/C=C2\C(=O)N(c3ccc(C(=O)O)cc3)N=C2C)o1` [Compound 6c] were, in that order, 249 to 251 °C, 38.1% and 8.3%.
In the case of `CC1=NN(c2ccc(C(=O)O)cc2)C(=O)/C1=C\c1ccc(-c2cc(C)c(C)cc2[N+](=O)[O-])o1` [Compound 7], the “% Inhibition Coupled” value with p300/CBP HAT [1] stood at 85.9%. Moreover, the “% inhibition of AANAT” value in the data set with AANAT is 4.8%. Further, the “% inhibition of PCAF” value at PCAF was 0%.
For the molecule `CC(=O)N[C@@H](CCCCNC(=O)CSCCNC(=O)CCNC(=O)[C@H](O)C(C)(C)COP(=O)(O)OP(=O)(O)OC[C@H]1O[C@@H](n2cnc3c(N)ncnc32)[C@H](O)[C@@H]1OP(=O)(O)O)C(N)=O` [Lys-CoA], the “inhibition of p300/CBP” value on p300/CBP was “powerful and selective inhibitor”.
`CC1=NN(c2ccc(C(=O)O)cc2)C(=O)/C1=C\c1ccc(-c2ccccc2)o1` [Compound 6a] had a melting point of 306 to 309 °C. The “% Inhibition Coupled” value in the data set with p300/CBP HAT [1] came to 33.7%. Moreover, the “% Inhibition Direct” value in the data set on p300/CBP HAT [2] was determined as 71.5%.
Take `CC(=O)NC(CCCCN)C(N)=O` (stereo not drawn) [Ac-Lys-NH2, CH3CO—NH-Lys-CONH2]: the “V/K(M^−1s^−1) for W.T.” value at wild-type p300 HAT stood at 1843 ± 50 M⁻¹ s⁻¹. At D1625R/D1628R p300 HAT, the “V/K(M^−1s^−1) for D1625R/D1628R” value came to 326 ± 10 M⁻¹ s⁻¹; the “V/K difference between wild-type p300 HAT protein and the D1625R/D1628R mutant” value was 6 fold.
Regarding RGAGGKGLGAGA [H4-12(K5A/K12A)], the “V/K(M^−1s^−1) for W.T.” value with wild-type p300 HAT was determined as 3824 ± 180 M⁻¹ s⁻¹. In addition, in the data set with D1625R/D1628R p300 HAT, the “V/K(M^−1s^−1) for D1625R/D1628R” value came to 515 ± 15 M⁻¹ s⁻¹.
`CC1=NN(c2ccc(C(N)=O)cc2)C(=O)/C1=C\c1ccc(-c2cc(C)c(C)cc2[N+](=O)[O-])o1` [Compound 6h] returned a melting point of 273 to 275 °C. In the data set on p300/CBP HAT [1], the “% Inhibition Coupled” value is given as 40.6%. Besides, the “% Inhibition Direct” value with p300/CBP HAT [2] is 94.7%.
For the molecule “GRGKGGKGLGKGGAK (Ac-GRGKGGKGLGKGGAK) [Compound H4-15]”, the “V/K(M^−1s^−1) for W.T.” value in the data set with wild-type p300 HAT worked out at 25000 ± 1643 M⁻¹ s⁻¹. Further, in the data set with D1625R/D1628R p300 HAT, the “V/K(M^−1s^−1) for D1625R/D1628R” value was 1162 ± 60 M⁻¹ s⁻¹; the “V/K difference between wild-type p300 HAT protein and the D1625R/D1628R mutant” value is 22 fold.

A word on the melting point: it is the temperature of the solid-liquid transition.
